Results on 6 compounds are retold here after patent US20080026079A1 (priority 2006, published 2008).

Data set [1] concerns irinotecan-induced diarrhea. The note with it: irinotecan weekly 125 mg/m^2; strict adherence to high-dose loperamide; fell from 56; cited from earlier work.
Data set [2] has as its system chemotherapy-induced diarrhea. The note with it: 41 5-FU-treated patients; standard-dose loperamide; cited from earlier work.
In data set [3] the test system is diarrhea following chemotherapy in dogs. The note with it: dog, in vivo.
Experimental: 32 dogs presented with diarrhea following the administration of a chemotherapy agent such as doxorubicin, cytoxan, vincristine, lomustine, and others for a minimum period of 48 hours. CASAD in 500 mg tables was given orally to the cancer-treated dogs four times a day (q.i.d.). Other pharmaceutical agents or medications, as shown below, were also administered to certain dogs according to Best Clinical Practices, using usual, customary dosing. To the extent permitted by scheduling, CASAD and the other medication were given concurrently.
Data set [4] deals with canine intestinal inflammation. Put plainly: Canine inflammatory bowel disease activity index (CIBDAI) around Adriamycin dosing. Also on record: key to CIBDAI C. Vomiting: 0 = none; 1 = mild (1 episode/week); 2 = moderate (2-3 episodes/week); 3 = severe (>3 episodes/week); key to CIBDAI A. Attitude/activity / CIBDAI B. Appetite / CIBDAI E. Stool frequency: 0 = normal; 1 = slightly decreased; 2 = moderately decreased; 3 = severely decreased. It is filed as in vivo, dog. The procedure:
(§1) The criteria used for the scoring in the table is found at the bottom of the table. Dogs in the study were given a “palliative” Adriamycin dosage (30 mg/m2, IV every 14 days). Symptoms related to intestinal inflammation are expected in fewer than 10% of treated dogs.

The subject of data set [5] is pregnant Sprague-Dawley rats. Put plainly: Dietary clay toxicity and trace metal bioavailability in pregnant rats. The note with it: rat, in vivo. How it is done: In animal studies with calcium montmorillonite clay, no adverse effects from clay treatment, at levels up to 2.0% (w/w) in the diet, have been reported. In recent studies in rodents, calcium montmorillonite clay were evaluated for potential toxicity and trace metal bioavailability in pregnant Sprague-Dawley rats throughout the period of gestation following high level exposure in the diet (2.0% w/w). Clays were supplemented in the balanced diet of Sprague-Dawley rats during pregnancy at a level of 2.0% (w/w). Evaluations of toxicity were performed on gestation day 16 and included maternal body weights, maternal feed intakes, litter weights, in addition to embryonic resorptions. Liver and, kidneys, tibia, brain, uterus, pooled placental, and pooled embryonic mass were collected and weighed. Tissue were lyophilized and neutron activation analysis (NAA) was then performed. Elements considered by NAA included: Al, Br, Ca, Ce, Co, Cr, Cs, Cu, Dy, Eu, Fe, Hf, K, La, Lu, Mg, Mn, Na, Nd, Ni, Rb, S, Sb, Sc, Se, Sm, Sr, Ta, Th, Te, Th, Ti, Tl, U, V, Yb, Zn, and Zr. Inductively coupled plasma-mass spectroscopy further confined that Al was below detection limits (0.5 ppm) in the brain, indicating no significant bioavailability of this metal from clay interactions in the GI tract. […]

Data set [6] relates to canine intestinal inflammation. Put plainly: Canine inflammatory bowel disease activity index (CIBDAI) around Adriamycin dosing. It is filed as in vivo. Also on record: key: 0 = normal; 1 = slightly soft faeces or faecal blood, mucus or both; 2 = very soft faeces; 3 = watery diarrhea. As to conditions: one line per dog. How it is done: as §1
For data set [7], the system named is canine intestinal inflammation. The description is as above. As to conditions: one line per dog. Also on record: key: 0 = normal; 1 = slightly decreased; 2 = moderately decreased; 3 = severely decreased. The data set is classed as in vivo. The procedure:
as §1

Data set [8] deals with hepatic demethylation capacity. The note with it: dog, in vivo.
Experimental: A ^13C-aminopyrine demethylation blood test was performed in 16 dogs before and after undergoing chemotherapy with doxorubicin for malignant neoplasia. A baseline blood sample of 1 ml was taken, followed by intravenous injection of 2 mg/kg ^13C-aminopyrine and collection of another 1 ml blood sample at 45 minutes after ^13C-aminopyrine administration. Blood samples were immediately placed into vacutainer tubes containing 2 ml of 6M hydrochloric acid and the percent dose of the ^13C administered as ^13C-aminopyrine was determined based on fractional mass spectrometry. […] A p-value <0.05 was considered statistically significant.
Data set [9] concerns dogs with malignant tumors. The note with it: cited from earlier work.
Another data set has as its system fecal α-1PI. Put plainly: Fecal alpha(1)-proteinase inhibitor ELISA following Adriamycin.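 As to m α-1PI - pd. 1: unit µg per g of feces.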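 As to m α-1PI - pd. 2: unit µg per g of feces.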 The data set is classed as in vivo, dog. The procedure:
Fecal alpha(1)-proteinase inhibitor (α-1PI) clearance is a reliable, noninvasive marker for protein-losing enteropathy in animals and canines. Furthermore, the canine gut is a good model for the human gut, so results of testing on dogs can be considered relevant to humans. In this example, a number of dogs were tested. Fecal samples were collected daily for 3 days following each Adriamycin administration. An ELISA was used to measure α-1PI concentrations in fecal extracts.
Fecal samples were available for analysis following both chemotherapy treatments from 13 dogs.

Values joined by “and” are separate entries in the source; they are usually repeats but may differ in a detail not shown here. Equal values may be shown once. “Also recorded” adds a separate entry of the source. Where only a bound is given, the exact number is not on record here.

For `CN(C)C(=O)C(CCN1CCC(O)(c2ccc(Cl)cc2)CC1)(c1ccccc1)c1ccccc1` [loperamide], the “prevalence of grade ¾ diarrhea” value in data set [1] was 9%. In addition, the “resolution of diarrhea by day three” value in data set [2] is 15%.

For the compound `C[C@@H](O)[C@@H]1NC(=O)[C@H](CCCCN)NC(=O)[C@@H](Cc2c[nH]c3ccccc23)NC(=O)[C@H](Cc2ccccc2)NC(=O)[C@@H](NC(=O)[C@H](N)Cc2ccccc2)CSSC[C@@H](C(=O)N[C@H](CO)[C@@H](C)O)NC1=O` [octreotide], the “resolution of diarrhea by day three” value in [2] is on record as 90%.

For calcium aluminosilicate [CASAD], in [3], the “1 = interaction 0 = noninteraction” value is given as 0; the dogs with interaction was found to be 0; the “negative interactions (anorexia, vomiting, nausea, lethargy, anaphylaxis) with additional drugs” value is on record as “No negative interactions”.

In the case of `Cc1ncc([N+](=O)[O-])n1CCO` [Flagyl, metronidazole], the “time to resolution of diarrhea” value in data set [4] (Dog 2, diarrhea started Day 21 after Adria 2) is on record as “with Flagyl, resolved in 2 days”.

With calcium montmorillonite clay, in data set [5], the “Al in the brain (ICP-MS)” value is on record as less than 0.5 ppm and the “brain Rb” value is “decreased brain Rb”.

Consider `COc1cccc2c1C(=O)c1c(O)c3c(c(O)c1C2=O)C[C@@](O)(C(=O)CO)C[C@@H]3O[C@H]1C[C@H](N)[C@H](O)[C@H](C)O1` [doxorubicin], for which the “CIBDAI D. Stool consistency” value in [6] (Post Adria 1) is “D.3 and D.1 and D.2”; in [6] (Post Adria 2), “D.2 and D.3”; in data set [6] (Pre Adria 2) it was “D.1”; in data set [7] (Post Adria 1), “D.0”; in data set [7] (Post Adria 2), “D.0”; in [7] (Pre Adria 2), “D.0”. Moreover, the “mean ±SD clearance at 45 minutes after 13C-aminopyrine administration” value in data set [8] is reported as 0.09562±0.0074. For the same compound, in data set [9] (185 dogs, 30 mg/m^2 iv once or twice at 21-day interval), the “dogs that died as a direct result of doxorubicin-induced toxicosis” value is 7 dogs. For the same compound, in data set [9] (dog, in vivo), the “likelihood of toxicosis after second dose in dogs with signs after first dose” value was 17.2 times. In addition, in the data set on fecal α-1PI (13 dogs), the “fecal α-1PI concentrations, comparison of the two treatments” value is reported as “not significantly different”. The “m α-1PI - pd. 1” value in the data set with fecal α-1PI (one line per dog, fecal samples 3 days following first Adriamycin administration) is 0 micro g/g of feces (5×) and 9.38 micro g/g of feces and 1.38 micro g/g of feces and 2.83 micro g/g of feces and 0.7 micro g/g of feces and 4.2 micro g/g of feces and 6.85 micro g/g of feces and 0.47 micro g/g of feces and 13.23 micro g/g of feces. Moreover, in the data set on fecal α-1PI (one line per dog, fecal samples 3 days following second Adriamycin administration), the “m α-1PI - pd. 2” value was 21.29 micro g/g of feces and 0 micro g/g of feces (3×) and 3.76 micro g/g of feces and 1.34 micro g/g of feces and 1.7 micro g/g of feces and 0.85 micro g/g of feces and 0.53 micro g/g of feces and 14.26 micro g/g of feces and 4.57 micro g/g of feces and 1.83 micro g/g of feces and 1.3 micro g/g of feces. The “CIBDAI A. Attitude/activity” value in data set [4] (Post Adria 1, 30 mg/m2 IV every 14 days, one line per dog) is “A.0 (11×) and A.1 (2×)”; in data set [4] (Post Adria 2, one line per dog), “A.0 (10×) and A.3 and A.2 and A.1”; in data set [4] (Pre Adria 2, one line per dog) it was “A.0”. In addition, the “CIBDAI B. Appetite” value in data set [4] (Post Adria 1, one line per dog) is “B.0 (11×) and B.2 (2×)”; in data set [4] (Post Adria 2, one line per dog) it was “B.0 (9×) and B.2 (2×) and B.3 and B.1”; in [4] (Pre Adria 2, one line per dog) it was “B.0 (12×) and B.1”. The “CIBDAI C. Vomiting” value is “C.1 (1 = mild (1 episode/week)) (2×) and C.0 (9×) and C.2 (2 = moderate (2-3 episodes/week)) (2×)” in data set [4] (Post Adria 1, one line per dog); “C.0 (11×) and C.1 (1 = mild (1 episode/week)) (2×)” in data set [4] (Post Adria 2, one line per dog); “C.0” in data set [4] (Pre Adria 2, one line per dog). For the same compound, the “CIBDAI E. Stool frequency” value was “E.0 (11×) and E.2 (2 = moderately increased (4-5 times/day)) and E.1 (1 = slightly increased (2-3 times/day))” in [4] (Post Adria 1, one line per dog); “E.2 (2 = moderately increased (4-5 times/day)) (2×) and E.0 (11×)” in data set [4] (Post Adria 2, one line per dog); “E.0” in data set [4] (Pre Adria 2, one line per dog). Besides, the “CIBDAI F. Weight loss” value in data set [4] (Pre Adria 2, one line per dog) was “F.0”. The “observations noted per dog after Adriamycin” value in [4] (notes under the dog's scores, listed as Adria) was “Day 21 - Lethargic for 1 week after; also recorded: Day 21 - Owner reported dumpty for 3 days post Adria #2; also recorded: Day 21 - Diarrhea started, treated; also recorded: Patient was euthanized 5 days after initial; also recorded: Day 7 - Diarrhea,; also recorded: Day 21 - Diarrhea for 3 days,; also recorded: Adria #2 delayed due to vomiting, diarrhea,”.
